14 compounds from ChEMBL document CHEMBL1932930, “Synthesis and biological assessment of novel 2-thiazolylhydrazones and computational analysis of their recognition by monoamine oxidase B” (Eur J Med Chem, 2012) can be followed below.

Data set [1] concerns the target T1, Amine oxidase [flavin-containing] A (Homo sapiens, UniProt P21397).
T1 sequence (P21397 whole entry): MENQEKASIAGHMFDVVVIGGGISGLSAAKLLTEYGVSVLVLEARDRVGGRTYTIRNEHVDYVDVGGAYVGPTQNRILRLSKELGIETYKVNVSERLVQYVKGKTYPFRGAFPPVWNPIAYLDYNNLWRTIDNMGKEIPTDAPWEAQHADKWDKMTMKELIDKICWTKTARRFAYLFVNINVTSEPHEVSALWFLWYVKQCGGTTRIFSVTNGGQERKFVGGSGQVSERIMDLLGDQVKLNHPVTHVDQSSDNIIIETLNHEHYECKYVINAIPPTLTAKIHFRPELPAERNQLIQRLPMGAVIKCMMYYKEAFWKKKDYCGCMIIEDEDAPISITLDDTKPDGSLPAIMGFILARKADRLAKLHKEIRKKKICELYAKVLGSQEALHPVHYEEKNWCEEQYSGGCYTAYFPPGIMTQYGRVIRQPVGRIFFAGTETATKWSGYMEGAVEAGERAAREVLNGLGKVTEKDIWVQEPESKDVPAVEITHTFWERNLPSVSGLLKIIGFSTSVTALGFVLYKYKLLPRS
As to the kind of experiment: Inhibition of human recombinant MAO-A expressed in baculovirus infected BTI-TN-5B1-4 insect cells assessed as inhibition of hydrogen peroxide production from […] after 15 mins by fluorimetric method. The note with it: bti-tn-5b1-4, 0.25 h.

The target in data set [2] is T2, Amine oxidase [flavin-containing] B (Homo sapiens, UniProt P27338).
T2 sequence (P27338 whole entry): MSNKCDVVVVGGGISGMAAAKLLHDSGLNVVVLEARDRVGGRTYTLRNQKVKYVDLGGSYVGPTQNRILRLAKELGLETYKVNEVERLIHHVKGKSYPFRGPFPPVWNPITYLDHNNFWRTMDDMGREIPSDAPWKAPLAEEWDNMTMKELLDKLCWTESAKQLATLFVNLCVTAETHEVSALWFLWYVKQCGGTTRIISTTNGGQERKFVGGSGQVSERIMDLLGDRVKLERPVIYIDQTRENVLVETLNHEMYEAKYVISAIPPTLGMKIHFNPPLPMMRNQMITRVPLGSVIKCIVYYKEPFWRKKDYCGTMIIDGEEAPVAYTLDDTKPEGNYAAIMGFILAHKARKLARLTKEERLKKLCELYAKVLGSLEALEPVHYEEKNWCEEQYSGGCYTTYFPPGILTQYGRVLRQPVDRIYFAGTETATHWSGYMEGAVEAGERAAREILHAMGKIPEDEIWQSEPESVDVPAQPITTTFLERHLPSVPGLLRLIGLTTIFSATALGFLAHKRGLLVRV
As to the kind of experiment: Inhibition of human recombinant MAO-B expressed in baculovirus infected BTI-TN-5B1-4 insect cells assessed as inhibition of hydrogen peroxide production from […] at 1 mM after 15 mins by fluorimetric method. The note with it: bti-tn-5b1-4, 0.25 h, 1000 µM.

Data set [3] concerns the target T1, Amine oxidase [flavin-containing] A. As to the kind of experiment: Inhibition of human recombinant MAO-A expressed in baculovirus infected BTI-TN-5B1-4 insect cells assessed as inhibition of hydrogen peroxide production from […] at 100 uM after 15 mins by fluorimetric method. The note with it: for inhibition at 100 µM: BTI-TN-5B1-4, human, 0.25 h; for inhibition (INH): human, bti-tn-5b1-4, 0.25 h, 100 µM.

For data set [4], the target named is T2, Amine oxidase [flavin-containing] B. As to the kind of experiment: biochemical.
Description: Inhibition of human recombinant MAO-B expressed in baculovirus infected BTI-TN-5B1-4 insect cells assessed as inhibition of hydrogen peroxide production from p-tryptamine after 15 mins by fluorimetric method
The target is the same in data set [5]. As to the kind of experiment: Inhibition of human recombinant MAO-B expressed in baculovirus infected BTI-TN-5B1-4 insect cells assessed as inhibition of hydrogen peroxide production from […] at 100 uM after 15 mins by fluorimetric method. The note with it: BTI-TN-5B1-4, human, 0.25 h.

Consider `O=C(NCCN1CCOCC1)c1ccc(Cl)cc1` [MOCLOBEMIDE], for which the “inhibition (INH)” value in data set [1] was “Dose-dependent effect”; in data set [2] it was “Not Active”.
For `COc1ccc(/C=N/Nc2nc(-c3ccc(F)cc3)cs2)cc1OC`, the inhibition at 100 µM in data set [3] was 40%. Moreover, the “inhibition (INH)” value in data set [1] is listed as “Dose-dependent effect”. Also, in data set [4], inhibition was half-maximal at 2390 nM (IC50).
Consider `Clc1ccc(-c2csc(N/N=C/c3ccccc3)n2)cc1`, for which the inhibition at 100 µM in data set [5] and in data set [3] was 40% in each case. Besides, the “inhibition (INH)” value in data set [1] is “Dose-dependent effect”.
`C#CCN(C)CCCOc1ccc(Cl)cc1Cl` [CLORGILINE]: the “inhibition (INH)” value in data set [1] is on record as “Dose-dependent effect”.
As to `Cc1ccccc1/C=N/Nc1nc(-c2ccc(Cl)cc2)cs1`, the inhibition at 100 µM in data set [5] and in data set [3] was 40% each time. For the same compound, the “inhibition (INH)” value in data set [1] is listed as “Dose-dependent effect”.
Regarding `Fc1ccc(-c2csc(N/N=C/c3ccccc3)n2)cc1`, in data set [3], the inhibition at 100 µM came out at 40%. The “inhibition (INH)” value in data set [1] is given as “Dose-dependent effect”. In data set [4], this compound gave an IC50 of 790 nM.
With `Clc1ccc(/C=N/Nc2nc(-c3ccc(Cl)cc3)cs2)cc1`, the inhibition at 100 µM in data set [5] and in data set [3] was 40% throughout. Besides, in data set [1], the “inhibition (INH)” value was “Dose-dependent effect”.
As for `Fc1ccc(-c2csc(N/N=C/c3ccc(Cl)cc3)n2)cc1`, the inhibition at 100 µM in data set [3] stood at 40%. In addition, in data set [1], the “inhibition (INH)” value is on record as “Dose-dependent effect”. For the same compound, the IC50 in data set [4] is 1320 nM.
With `COc1ccc(/C=N/Nc2nc(-c3ccc(Cl)cc3)cs2)cc1`, the inhibition at 100 µM in data set [5] and in data set [3] was 40% each time. For the same compound, the “inhibition (INH)” value in data set [1] was “Dose-dependent effect”.
On to `Cc1ccccc1/C=N/Nc1nc(-c2ccc(F)cc2)cs1`, for which, in data set [3], the inhibition at 100 µM came to 40%. Also, the “inhibition (INH)” value in data set [1] is recorded as “Dose-dependent effect”. Also, the 50% inhibitory concentration (IC50) in data set [4] was 190 nM.
`COc1ccc(/C=N/Nc2nc(-c3ccc(Cl)cc3)cs2)cc1OC`: the inhibition at 100 µM in data set [5] and in data set [3] was 40% throughout. Moreover, in data set [1], the “inhibition (INH)” value is “Dose-dependent effect”.
`Cc1ccc(/C=N/Nc2nc(-c3ccc(F)cc3)cs2)cc1`: the “inhibition (INH)” value is reported as “Not Active” in data set [3] and “Dose-dependent effect” in data set [1]. Moreover, in data set [4], it took 44700 nM to reach half-maximal inhibition (IC50).
For the compound `COc1ccc(/C=N/Nc2nc(-c3ccc(F)cc3)cs2)cc1`, in data set [3], the inhibition at 100 µM was found to be 40%. The “inhibition (INH)” value in data set [1] is recorded as “Dose-dependent effect”. In addition, the IC50 in data set [4] worked out at 9240 nM.
As to `Cc1ccc(/C=N/Nc2nc(-c3ccc(Cl)cc3)cs2)cc1`, in data set [5], the inhibition at 100 µM is 40%. The “inhibition (INH)” value is reported as “Not Active” in data set [3] and “Dose-dependent effect” in data set [1].

The term inhibition denotes the drop in the measured response relative to a control, in per cent. As usually defined, the IC50 is the concentration that inhibits the measured activity by half. Low values mean greater potency, high ones weaker potency.
